Data published in publication doi:10.1101/2025.11.13.687868v1 (biorxiv, 2025).
pIC50: −log10 of the molar value.

Legend:
[1] = target: T1, GPX4 (purified recombinant Sec-containing human GPX4) (Homo sapiens, UniProt P36969); experiment: GR-coupled NADPH fluorescence assay; format: biochemical
T1 sequence (P36969 28-197): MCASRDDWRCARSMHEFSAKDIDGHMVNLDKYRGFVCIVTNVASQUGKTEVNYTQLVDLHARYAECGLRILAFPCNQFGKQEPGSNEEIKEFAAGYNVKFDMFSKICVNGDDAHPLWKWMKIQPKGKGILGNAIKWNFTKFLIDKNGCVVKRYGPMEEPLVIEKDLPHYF

[2] = target: T2, GPX1 (Homo sapiens, UniProt P07203); experiment: GR-coupled NADPH fluorescence assay; format: biochemical
T2 sequence (P07203 1-203): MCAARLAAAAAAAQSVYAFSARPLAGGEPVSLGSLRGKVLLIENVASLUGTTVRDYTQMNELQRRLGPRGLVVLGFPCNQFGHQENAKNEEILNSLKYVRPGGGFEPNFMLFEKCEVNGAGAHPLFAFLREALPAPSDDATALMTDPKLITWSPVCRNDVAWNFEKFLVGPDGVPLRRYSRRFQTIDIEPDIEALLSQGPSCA

## O=C(O)CC(S)C(=O)O (centres unmarked) [thiomalic acid]
[1]
  pIC50: 4.26
[2]
  pIC50: 5.17
